{"source": "patent US11833229B2", "about": "“Labeling precursors with squaric acid coupling” (SCV—SpezialChemikalienVertrieb GmbH, priority 2019, dated 2023)", "key": {"[1]": {"assay": "Stability of [44Sc]Sc-AAZTA.QS.PSMA", "type": "in vitro ADME", "settings": "over a period of 24 hours", "procedure": "Similar to DATA, the AAZTA chelator can also be labeled with radio nuclides such as ^44Sc and ^68Ga under mild conditions. In the instant example, the radioisotope ^44Sc is used and the properties of the radiotracer [^44Sc]Sc-AAZTA.QS.PSMA are investigated. The synthesis shown in FIG. 44 was readily carried out with high yield. […] The stability of [^44Sc]Sc-AAZTA.QS.PSMA exceeds 95% over a period of 24 hours (FIG. 46)."}, "[2]": {"test_system": "LNCap tumor", "assay": "Ex vivo activities of [44Sc]Sc-AAZTA.QS.PSMA with and without 2-PMPA blocking", "type": "in vivo, mice", "settings": "for Ex vivo activity kindneys: kidneys", "procedure": "The radiotracer [^44Sc]Sc-AAZTA.QS.PSMA was further examined in vivo in three mice, each carrying an LNCap tumor. In addition blocking tests were carried out on one of the mice. […] The same applies to the kidneys."}}, "data": [{"smiles": "O=C(O)CCC(NC(=O)NC(CCCCNc1c(NCCNC(=O)CCCCC2(N(CC(=O)O)CC(=O)O)CN(CC(=O)O)CCN(CC(=O)O)C2)c(=O)c1=O)C(=O)O)C(=O)O.[44Sc+3]", "note": "(stereo not shown) [^44Sc.AAZTA.QS.KuE]", "values": [{"measurement": "stability", "setting": "[1]", "result": "exceeds 95%"}, {"measurement": "Ex vivo activity LN", "setting": "[2]; Block (+PMPA)", "result": 0.39, "unit": "% ID/g"}, {"measurement": "Ex vivo activity LN", "setting": "[2]; mouse (1), no blocking", "result": 1.33, "unit": "% ID/g"}, {"measurement": "Ex vivo activity LN", "setting": "[2]; mouse (2), no blocking", "result": 0.38, "unit": "% ID/g"}, {"measurement": "Ex vivo activity blood", "setting": "[2]; Block (+PMPA)", "result": 0.34, "unit": "% ID/g"}, {"measurement": "Ex vivo activity blood", "setting": "[2]; mouse (1), no blocking", "result": 0.96, "unit": "% ID/g"}, {"measurement": "Ex vivo activity blood", "setting": "[2]; mouse (2), no blocking", "result": 0.41, "unit": "% ID/g"}, {"measurement": "Ex vivo activity bone", "setting": "[2]; Block (+PMPA)", "result": 0.10, "unit": "% ID/g"}, {"measurement": "Ex vivo activity bone", "setting": "[2]; mouse (1), no blocking", "result": 0.46, "unit": "% ID/g"}, {"measurement": "Ex vivo activity bone", "setting": "[2]; mouse (2), no blocking", "result": 0.29, "unit": "% ID/g"}, {"measurement": "Ex vivo activity heart", "setting": "[2]; Block (+PMPA)", "result": 0.11, "unit": "% ID/g"}, {"measurement": "Ex vivo activity heart", "setting": "[2]; mouse (1), no blocking", "result": 0.41, "unit": "% ID/g"}, {"measurement": "Ex vivo activity heart", "setting": "[2]; mouse (2), no blocking", "result": 0.14, "unit": "% ID/g"}, {"measurement": "Ex vivo activity kindneys", "setting": "[2]; Block (+PMPA)", "result": 7.97, "unit": "% ID/g"}, {"measurement": "Ex vivo activity kindneys", "setting": "[2]; mouse (1), no blocking", "result": 119.86, "unit": "% ID/g"}, {"measurement": "Ex vivo activity kindneys", "setting": "[2]; mouse (2), no blocking", "result": 42.76, "unit": "% ID/g"}, {"measurement": "Ex vivo activity liver", "setting": "[2]; Block (+PMPA)", "result": 0.16, "unit": "% ID/g"}, {"measurement": "Ex vivo activity liver", "setting": "[2]; mouse (1), no blocking", "result": 0.42, "unit": "% ID/g"}, {"measurement": "Ex vivo activity liver", "setting": "[2]; mouse (2), no blocking", "result": 0.16, "unit": "% ID/g"}, {"measurement": "Ex vivo activity lung", "setting": "[2]; Block (+PMPA)", "result": 0.06, "unit": "% ID/g"}, {"measurement": "Ex vivo activity lung", "setting": "[2]; mouse (1), no blocking", "result": 1.31, "unit": "% ID/g"}, {"measurement": "Ex vivo activity lung", "setting": "[2]; mouse (2), no blocking", "result": 0.59, "unit": "% ID/g"}, {"measurement": "Ex vivo activity muscle", "setting": "[2]; Block (+PMPA)", "result": 0.05, "unit": "% ID/g"}, {"measurement": "Ex vivo activity muscle", "setting": "[2]; mouse (1), no blocking", "result": 0.38, "unit": "% ID/g"}, {"measurement": "Ex vivo activity muscle", "setting": "[2]; mouse (2), no blocking", "result": 0.13, "unit": "% ID/g"}, {"measurement": "Ex vivo activity salivary glands", "setting": "[2]; Block (+PMPA)", "result": 0.11, "unit": "% ID/g"}, {"measurement": "Ex vivo activity salivary glands", "setting": "[2]; mouse (1), no blocking", "result": 0.51, "unit": "% ID/g"}, {"measurement": "Ex vivo activity salivary glands", "setting": "[2]; mouse (2), no blocking", "result": 0.18, "unit": "% ID/g"}, {"measurement": "Ex vivo activity small intestine", "setting": "[2]; Block (+PMPA)", "result": 0.35, "unit": "% ID/g"}, {"measurement": "Ex vivo activity small intestine", "setting": "[2]; mouse (1), no blocking", "result": 0.62, "unit": "% ID/g"}, {"measurement": "Ex vivo activity small intestine", "setting": "[2]; mouse (2), no blocking", "result": 0.22, "unit": "% ID/g"}, {"measurement": "Ex vivo activity spleen", "setting": "[2]; Block (+PMPA)", "result": 0.15, "unit": "% ID/g"}, {"measurement": "Ex vivo activity spleen", "setting": "[2]; mouse (1), no blocking", "result": 6.19, "unit": "% ID/g"}, {"measurement": "Ex vivo activity spleen", "setting": "[2]; mouse (2), no blocking", "result": 1.15, "unit": "% ID/g"}, {"measurement": "Ex vivo activity tumor", "setting": "[2]; Block (+PMPA)", "result": 0.53, "unit": "% ID/g"}, {"measurement": "Ex vivo activity tumor", "setting": "[2]; mouse (1), no blocking", "result": 14.73, "unit": "% ID/g"}, {"measurement": "Ex vivo activity tumor", "setting": "[2]; mouse (2), no blocking", "result": 14.14, "unit": "% ID/g"}]}]}
